IC50 data for 14 compounds are collected here from patent US20240025856A1, “1,2,3,4-TETRAHYDROQUINOLINE DERIVATIVES AS INHIBITORS OF THE YAP/TAZ-TEAD ACTIVATION FOR TREATING CANCER” (KATHOLIEKE UNIVERSITEIT LEUVEN, priority 2020, published 2024).

One test deals with YAP/TAZ-TEAD transcription. The experiment in a line: Reporter gene assay for measuring the inhibition of YAP/TAZ-TEAD transcription (TEAD-responsive element luciferase reporter in Hek293T cells). Type of test: cell-based. The conditions noted are these: Hek293T cells transiently transfected with TEAD-responsive element luciferase reporter; 24 hours incubation. The procedure:
Hek293T cells are cultured in DMEM supplemented with 10% fetal bovine serum, Sodium pyruvate, Sodium bicarbonate, L-glutamine. The cells are harvested and transiently transfected with TEAD-responsive element luciferase reporter. Transfected cells are plated in 384-wells plate containing pre-diluted compounds. After 24 hours incubation at 37° C./5% CO2, assay plates were cooled down to RT and levelled to an equal volume per well, prior to the addition of 25 uL luciferase substrate SteadyLite (Perkin Elmer)/well. The plate was shaken for 10 min at 600 rpm, centrifuged for 1 min at 500 rpm and measured with an Envision reader (PerkinElmer). The amount of relative light units produced by the TEAD reporter is used to calculated percent of inhibition. The percent of reporter inhibition was calculated in the presence of a positive control inhibitor (100% inhibition) versus a condition with the presence of the vehicle basal activity of the reporter (0% inhibition). The ability of a test compound to inhibit this activity was determined as: Percentage inhibition=[[…]((RLU determined in the presence of vehicle−RLU determined for sample with test compound present) divided by (RLU determined in the presence of vehicle−RLU determined for sample with positive control inhibitor))]*100
The activities of example compounds tested are depicted in the table below. The activity ranges A, B and C refer to IC50 values in the reporter gene assay as follows: “A”: IC50<1 μM; “B”: 1 μM≤IC50≤20 μM and “C”: IC50>20 μM; NT=not tested.
For orientation: In a reporter assay the amount or activity of a reporter protein is the signal.
Regarding `OCCNC1Cc2ccccc2N(c2ccc(C(F)(F)F)cc2)C1` (single isomer, unassigned) [043-En1, (R)- or (S)-2-((1-(4-(trifluoromethyl)phenyl)-1,2,3,4-tetrahydroquinolin-3-yl)amino)ethan-1-ol], the concentration for half-maximal inhibition (IC50) (commonly the concentration that gives 50% inhibition) is 1000 to 20000 nM.

`OCCNC1Cc2ccccc2N(c2ccc(C(F)(F)F)cc2)C1` (single isomer, unassigned) [043-En2, (R)- or (S)-2-((1-(4-(trifluoromethyl)phenyl)-1,2,3,4-tetrahydroquinolin-3-yl)amino)ethan-1-ol]: the concentration for half-maximal inhibition (IC50) is < 1000 nM.

With `OCCCNC1Cc2ccccc2N(c2ccc(C(F)(F)F)cc2)C1` (single isomer, unassigned) [045-En1, (R)- or (S)-3-((1-(4-(trifluoromethyl)phenyl)-1,2,3,4-tetrahydroquinolin-3-yl)amino)propan-1-ol], the half-inhibitory concentration (IC50) is 1000 to 20000 nM.

Compound `OCCCNC1Cc2ccccc2N(c2ccc(C(F)(F)F)cc2)C1` (single isomer, unassigned) [045-En2, (R)- or (S)-3-((1-(4-(trifluoromethyl)phenyl)-1,2,3,4-tetrahydroquinolin-3-yl)amino)propan-1-ol] displayed an IC50 of 1000 to 20000 nM.

Consider `C=CC(=O)NCC1Cc2c(C(=O)NS(C)(=O)=O)cccc2N(c2ccc(C(F)(F)F)cc2)C1` (single isomer, unassigned) [157-En1, (R)- or (S)-3-(acrylamidomethyl)-N-(methylsulfonyl)-1-(4-(trifluoromethyl)phenyl)-1,2,3,4-tetrahydroquinoline-5-carboxamide], for which the concentration for half-maximal inhibition (IC50) is > 20000 nM.

`FC(F)(F)c1ccc(N2CC(C3CC(Br)=NO3)Cc3ccccc32)cc1` (single isomer, unassigned) [Cpd. No. 194(Dia1)-En2, 3-bromo-5-(1-(4-(trifluoromethyl)phenyl)-1,2,3,4-tetrahydroquinolin-3-yl)-4,5-dihydroisoxazole]: the IC50 is > 20000 nM.

Consider `FC(F)(F)c1ccc(N2CC(C3CC(Br)=NO3)Cc3ccccc32)cc1` (single isomer, unassigned) [Cpd. No. 194(Dia2)-En1, 3-bromo-5-(1-(4-(trifluoromethyl)phenyl)-1,2,3,4-tetrahydroquinolin-3-yl)-4,5-dihydroisoxazole], for which the IC50 is 1000 to 20000 nM.

Turning to `FC(F)(F)c1ccc(N2CC(C3CC(Br)=NO3)Cc3ccccc32)cc1` (single isomer, unassigned) [Cpd. No. 194(Dia2)-En2, 3-bromo-5-(1-(4-(trifluoromethyl)phenyl)-1,2,3,4-tetrahydroquinolin-3-yl)-4,5-dihydroisoxazole], the IC50 was < 1000 nM.

Still in this test, the particulars now being: Homo sapiens, HEK-293T, 24 h, Hek293T cells transiently transfected with TEAD-responsive element luciferase reporter; 24 hours incubation.
On to `C=CC(=O)NC1Cc2ccccc2N(c2ccc(C(F)(F)F)cc2)C1` (single isomer, unassigned) [001-En1], for which the IC50 is < 1000 nM.

As to `C=CC(=O)NCC1Cc2ccccc2N(c2ccc(C(F)(F)F)cc2)C1` (single isomer, unassigned) [084-En2, N-((1-(4-(trifluoromethyl)phenyl)-1,2,3,4-tetrahydroquinolin-3-yl)methyl)acrylamide], the IC50 was < 1000 nM.

As to `NCC1Cc2ccccc2N(c2ccc(C(F)(F)F)cc2)C1` (centres unmarked) [170 (Int-10), (1-(4-(trifluoromethyl)phenyl)-1,2,3,4-tetrahydroquinolin-3-yl)methanamine], the IC50 was in the range of 1000 to 20000 nM.

`NC1Cc2ccccc2N(c2ccc(C(F)(F)F)cc2)C1` (centres unmarked) [171 (Int-3), 1-(4-(trifluoromethyl)phenyl)-1,2,3,4-tetrahydroquinolin-3-amine] displayed an IC50 of 1000 to 20000 nM.

On to `C=CC(=O)NC1Cc2nc(OC)ccc2N(c2ccc(C(F)(F)F)cc2)C1` (centres unmarked) [Cpd. No. 141, N-(6-methoxy-1-(4-(trifluoromethyl)phenyl)-1,2,3,4-tetrahydro-1,5-naphthyridin-3-yl)acrylamide], for which the 50% inhibitory concentration (IC50) was < 1000 nM.

On to `C=CC(=O)NCC1Cc2c(C(=O)O)cccc2N(c2ccc(C(F)(F)F)cc2)C1` (centres unmarked) [Cpd. No. 156, 3-(acrylamidomethyl)-1-(4-(trifluoromethyl)phenyl)-1,2,3,4-tetrahydroquinoline-5-carboxylic acid], for which the IC50 was > 20000 nM.
